Test results reported in patent US20240158394A1, “NEK7 INHIBITORS” (Halia Therapeutics, Inc., priority 2022, published 2024).

Biological target: full-length recombinant human NEK7 (Homo sapiens (Human), UniProt Q8TDX7)
Assay: NEK7 Enzymatic Assay
Format: biochemical
Conditions: casein substrate, [33P]-ATP, 2 hours at room temperature
Description: Casein substrate (from bovine milk, hydrolyzed and partially dephosphorylated mixture of α, β and κ caseins, obtained from Sigma Aldrich, catalogue #C4765, diluted in distilled water to a final concentration of 1 mg/mL) and full-length recombinant human NEK7 (expressed by baculovirus in Sf9 insect cells using a N-terminal GST tag, obtained from SignalChem, catalogue #N09-10G, 0.1 μg/μL) were mixed in assay buffer (20 mM HEPES pH 7.5, 10 mM MgCl2, 1 mM EGTA, 0.02% Brij35, 0.02 mg/mL BSA, 0.1 mM Na3VO4, 2 mM DTT, 1% DMSO). Compounds of interest (serial 3-fold dilution in DMSO from 10 μM to 0.5 nM) or vehicle (1% DMSO) were dispensed into the kinase reaction mixture by Acoustic technology (Echo550; nanoliter range). After incubation at room temperature for 20 minutes, the kinase reaction was initiated by addition of [^33P]-ATP (specific activity 10 μCi/μL) and the mixture was incubated at room temperature for 2 hours. The reaction was then stopped by spotting the reaction mixture on strips of phosphocellulose P81 paper. Following washing, the radioactivity of the P81 paper was measured and kinase activity data were expressed as the percent remaining kinase activity in test samples compared to vehicle reactions. IC50 values and curve fits were obtained using Prism (GraphPad Software).

Sequence of full-length recombinant human NEK7 (Q8TDX7 whole entry): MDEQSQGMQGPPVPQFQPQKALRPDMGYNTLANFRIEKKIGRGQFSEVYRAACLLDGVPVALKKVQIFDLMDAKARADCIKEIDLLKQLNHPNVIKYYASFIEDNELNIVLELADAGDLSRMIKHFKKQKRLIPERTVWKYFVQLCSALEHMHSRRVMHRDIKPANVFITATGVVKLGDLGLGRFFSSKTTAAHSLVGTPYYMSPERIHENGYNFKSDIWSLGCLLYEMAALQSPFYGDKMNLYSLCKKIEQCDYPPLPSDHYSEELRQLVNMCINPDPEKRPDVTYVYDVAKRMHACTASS

| SMILES | IC50 [nM] |
| --- | --- |
| Nc1ncnc2c1c(-c1ccc(NC(=O)Nc3cc(C4(C(F)(F)F)CCC4)on3)c3nccn13)cn2C1CC1 [Example I-33, 1-(5-(4-amino-7-cyclopropyl-7H-pyrrolo[2,3-d]pyrimidin-5-yl)imidazo[1,2-a]pyridin-8-yl)-3-(5-(1-(trifluoromethyl)-cyclobutyl)isoxazol-3-yl)urea] | 200 to 500 |
| Nc1ncnc2c1c(-c1ccc(NC(=O)Nc3ccc(CN4CCN(CCF)CC4)c(C(F)(F)F)c3)c3nccn13)cn2C1CC1 [Example I-41, 1-(5-(4-amino-7-cyclopropyl-7H-pyrrolo[2,3-d]pyrimidin-5-yl)imidazo[1,2-a]pyridin-8-yl)-3-(4-((4-(2-fluoroethyl)-piperazin-1-yl)methyl)-3-(trifluoromethyl)phenyl)urea] | < 200 |
| Nc1ncnc2c1c(-c1ccc(NC(=O)Nc3cc(C4(C(F)(F)F)CC4)on3)c3nc(C(F)(F)F)cn13)cn2C1CC1 [Example I-46, 1-(5-(4-amino-7-cyclopropyl-7H-pyrrolo[2,3-d]pyrimidin-5-yl)-2-(trifluoromethyl)-imidazo[1,2-a]pyridin-8-yl)-3-(5-(1-(trifluoromethyl)cyclo-propyl)isoxazol-3-yl)urea] | > 2000 |
| Nc1ncnc2c1c(-c1cnc(NC(=O)Nc3cc(C4(C(F)(F)F)CC4)on3)c3nccn13)cn2C1CC1 [Example I-50, 1-(5-(4-amino-7-cyclopropyl-7H-pyrrolo[2,3-d]pyrimidin-5-yl)imidazo[1,2-a]pyrazin-8-yl)-3-(5-(1-(trifluoromethyl)-cyclopropyl)isoxazol-3-yl)urea] | > 2000 |
| CN1CCC(Oc2ccc(NC(=O)Nc3ccc(-c4cn(C5CC5)c5ncnc(N)c45)c4c3OCC4)cc2C(F)(F)F)CC1 [Example I-55, 1-(4-(4-amino-7-cyclopropyl-7H-pyrrolo[2,3-d]pyrimidin-5-yl)-2,3-dihydrobenzofuran-7-yl)-3-(4-((1-methylpiperidin-4-yl)oxy)-3-(trifluorometh-yl)phenyl)urea] | 200 to 500 |
| CC1Cc2c(-c3cn(C4CC4)c4ncnc(N)c34)ccc(NC(=O)Nc3cc(C4(C(F)(F)F)CC4)on3)c2O1 (centres unmarked) [Example I-56, 1-(4-(4-amino-7-cyclopropyl-7H-pyrrolo[2,3-d]pyrimidin-5-yl)-2-methyl-2,3-dihydro-benzofuran-7-yl)-3-(5-(1-(trifluoromethyl)cyclopropyl)-isoxazol-3-yl)urea] | 500 to 2000 |
| CC1Cc2c(-c3cn(C4CC4)c4ncnc(N)c34)ccc(NC(=O)Nc3ccc(CN4CCN(C)CC4)c(C(F)(F)F)c3)c2O1 (centres unmarked) [Example I-57, 1-(4-(4-amino-7-cyclopropyl-7H-pyrrolo[2,3-d]pyrimidin-5-yl)-2-methyl-2,3-dihydro-benzofuran-7-yl)-3-(4-((4-methylpiperazin-1-yl)methyl)-3-(trifluoromethyl)phenyl)urea] | 500 to 2000 |
| CC1Cc2c(-c3cn(C4CC4)c4ncnc(N)c34)ccc(NC(=O)Nc3ccc(OC4CCN(C)CC4)c(C(F)(F)F)c3)c2O1 (centres unmarked) [Example I-58, 1-(4-(4-amino-7-cyclopropyl-7H-pyrrolo[2,3-d]pyrimidin-5-yl)-2-methyl-2,3-dihydro-benzofuran-7-yl)-3-(4-((1-methylpiperidin-4-yl)oxy)-3-(trifluoromethyl)phenyl)urea] | > 2000 |
| CC1(C)Cc2c(-c3cn(C4CC4)c4ncnc(N)c34)ccc(NC(=O)Nc3cc(C4(C(F)(F)F)CC4)on3)c2O1 [Example I-59, 1-(4-(4-amino-7-cyclopropyl-7H-pyrrolo[2,3-d]pyrimidin-5-yl)-2,2-dimethyl-2,3-dihydrobenzofuran-7-yl)-3-(5-(1-(trifluoromethyl)cyclo-propyl)isoxazol-3-yl)urea] | 200 to 500 |
| CN1CCN(Cc2ccc(NC(=O)Nc3ccc(-c4cn(C5CC5)c5ncnc(N)c45)c4c3OC(C)(C)C4)cc2C(F)(F)F)CC1 [Example I-60, 1-(4-(4-amino-7-cyclopropyl-7H-pyrrolo[2,3-d]pyrimidin-5-yl)-2,2-dimethyl-2,3-dihydrobenzofuran-7-yl)-3-(4-((4-methylpiperazin-1-yl)-methyl)-3-(trifluoromethyl)-phenyl)urea] | > 2000 |
| CN1CCC(Oc2ccc(NC(=O)Nc3ccc(-c4cn(C5CC5)c5ncnc(N)c45)c4c3OC(C)(C)C4)cc2C(F)(F)F)CC1 [Example I-61, 1-(4-(4-amino-7-cyclopropyl-7H-pyrrolo[2,3-d]pyrimidin-5-yl)-2,2-dimethyl-2,3-dihydrobenzofuran-7-yl)-3-(4-((1-methylpiperidin-4-yl)-oxy)-3-(trifluoromethyl)phen-yl)urea] | > 2000 |
| Nc1ncnc2c1c(-c1ccc(NC(=O)Nc3cc(C4(C(F)(F)F)CC4)no3)c3occc13)cn2C1CC1 [Example I-64, 1-(4-(4-amino-7-cyclopropyl-7H-pyrrolo[2,3-d]pyrimidin-5-yl)benzofuran-7-yl)-3-(3-(1-(trifluoromethyl)cyclo-propyl)isoxazol-5-yl)urea] | > 2000 |
| CN1CCC(Oc2ccc(NC(=O)Nc3ccc(-c4cn(C5CC5)c5ncnc(N)c45)c4ccoc34)cc2C(F)(F)F)CC1 [Example I-67, 1-(4-(4-amino-7-cyclopropyl-7H-pyrrolo[2,3-d]pyrimidin-5-yl)benzofuran-7-yl)-3-(4-((1-methylpiperidin-4-yl)oxy)-3-(trifluoromethyl)phenyl)urea] | 500 to 2000 |
| Nc1ncnc2c1c(-c1ccc(NC(=O)Nc3cc(C4(C(F)(F)F)CC4)on3)c3ocnc13)cn2C1CC1 [Example I-71, 1-(4-(4-amino-7-cyclopropyl-7H-pyrrolo[2,3-d]pyrimidin-5-yl)benzo[d]oxazol-7-yl)-3-(5-(1-(trifluoromethyl)cyclo-propyl)isoxazol-3-yl)urea] | 500 to 2000 |
| CN1CCN(Cc2ccc(NC(=O)Nc3ccc(-c4cn(C5CC5)c5ncnc(N)c45)c4nonc34)cc2C(F)(F)F)CC1 [Example I-78, 1-(7-(4-amino-7-cyclopropyl-7H-pyrrolo[2,3-d]pyrimidin-5-yl)benzo[c][1,2,5]oxadiazol-4-yl)-3-(4-((4-methylpiperazin-1-yl)methyl)-3-(trifluorometh-yl)phenyl)urea] | < 200 |
| CC(C)n1cc(-c2ccc(NC(=O)Nc3cc(C4(C(F)(F)F)CC4)on3)c3nccn23)c2c(N)ncnc21 [Example I-83, 1-(5-(4-amino-7-isopropyl-7H-pyrrolo[2,3-d]pyrimidin-5-yl)imidazo[1,2-a]pyridin-8-yl)-3-(5-(1-(trifluorometh-yl)cyclopropyl)isoxazol-3-yl)-urea] | < 200 |

The next lines start with the values.

| IC50 [nM] | SMILES |
| --- | --- |
| < 200 | CCN1CCN(Cc2ccc(NC(=O)Nc3ccc(-c4cn(C5CC5)c5ncnc(N)c45)n4ccnc34)cc2C(F)(F)F)CC1 [Example I-35, 1-(5-(4-amino-7-cyclopropyl-7H-pyrrolo[2,3-d]pyrimidin-5-yl)imidazo[1,2-a]pyridin-8-yl)-3-(4-((4-ethylpiperazin-1-yl)methyl)-3-(trifluorometh-yl)phenyl)urea] |
| < 200 | CN1CCN(Cc2cc(NC(=O)Nc3ccc(-c4cn(C5CC5)c5ncnc(N)c45)n4ccnc34)cc(C(F)(F)F)c2)CC1 [Example I-36, 1-(5-(4-amino-7-cyclopropyl-7H-pyrrolo[2,3-d]pyrimidin-5-yl)imidazo[1,2-a]pyridin-8-yl)-3-(3-((4-methylpiperazin-1-yl)methyl)-5-(trifluorometh-yl)phenyl)urea] |
| < 200 | CCN1CCC(Oc2ccc(NC(=O)Nc3ccc(-c4cn(C5CC5)c5ncnc(N)c45)n4ccnc34)cc2C(F)(F)F)CC1 [Example I-38, 1-(5-(4-amino-7-cyclopropyl-7H-pyrrolo[2,3-d]pyrimidin-5-yl)imidazo[1,2-a]pyridin-8-yl)-3-(4-((1-ethylpiperidin-4-yl)oxy)-3-(trifluoromethyl)-phenyl)urea] |
| < 200 | Nc1ncnc2c1c(-c1ccc(NC(=O)Nc3ccc(CN4CCN(CCO)CC4)c(C(F)(F)F)c3)c3nccn13)cn2C1CC1 [Example I-39, 1-(5-(4-amino-7-cyclopropyl-7H-pyrrolo[2,3-d]pyrimidin-5-yl)imidazo[1,2-a]pyridin-8-yl)-3-(4-((4-(2-hydroxyeth-yl)piperazin-1-yl)methyl)-3-(trifluoromethyl)phenyl)urea] |
| < 200 | COCCN1CCN(Cc2ccc(NC(=O)Nc3ccc(-c4cn(C5CC5)c5ncnc(N)c45)n4ccnc34)cc2C(F)(F)F)CC1 [Example I-40, 1-(5-(4-amino-7-cyclopropyl-7H-pyrrolo[2,3-d]pyrimidin-5-yl)imidazo[1,2-a]pyridin-8-yl)-3-(4-((4-(2-methoxyeth-yl)piperazin-1-yl)methyl)-3-(trifluoromethyl)phenyl)urea] |
| < 200 | CCN1CCN(Cc2ccc(NC(=O)Nc3ccc(-c4cn(C5CC5)c5ncnc(N)c45)c4c3OCC4)cc2C(F)(F)F)CC1 [Example I-54, 1-(4-(4-amino-7-cyclopropyl-7H-pyrrolo[2,3-d]pyrimidin-5-yl)-2,3-dihydrobenzofuran-7-yl)-3-(4-((4-ethylpiperazin-1-yl)methyl)-3-(trifluorometh-yl)phenyl)urea] |
| < 200 | CN1CCC(Oc2ccc(NC(=O)Nc3ccc(-c4cn(C5CC5)c5ncnc(N)c45)c4cnoc34)cc2C(F)(F)F)CC1 [Example I-70, 1-(4-(4-amino-7-cyclopropyl-7H-pyrrolo[2,3-d]pyrimidin-5-yl)benzo[d]isoxazol-7-yl)-3-(4-((1-methylpiperidin-4-yl)oxy)-3-(trifluoromethyl)-phenyl)urea] |
